{"source": "patent US10039729B2", "about": "“Use of kukoamine A and kukoamine B” (Tianjin Chase Sun Pharmaceutical Co., Ltd., priority 2010, dated 2018)", "key": {"RAW264.7 cells": {"system": "RAW264.7 cells", "experiment": "Binding and cellular internalization of LPS and CpG DNA to RAW264.7 cells (confocal microscopy)", "format": "cell-based, murine", "conditions": "KB 50, 100 and 200 μM, dose-dependent", "protocol": "21.1 Methods: RAW264.7 cells were cultured in 20 mm cell culture dishes for confocal microscopy applications, and diluted to 5×10^5/ml in DMEM supplemented with 10% (v/v) NCS; 1 ml of the above suspension was transferred into each cell culture dishes and cultured at 37° C. in a 5% CO2 humidified incubator for 4 h; for the purpose of experiment three groups were established, medium group, stimulation group and KB treatment group; the concentration and loading patterns of each group were consistent with Embodiment 12; the cells were then fixed with 4% paraform for 10 min after 30 min of culture, and washed thrice with PBS; nucleus were stained with DAPI (100 ng·mL^−1) for 2 min, washed with PBS thrice, mounted with a solution of 50% glycerol and 50% PBS, and stored in dark place until intensity and distribution of fluorescence of LPS and CpG DNA on RAW264.7 cells surface were observed under a confocal microscopy."}, "NF-κB": {"system": "NF-κB", "experiment": "NF-κB activation in RAW264.7 cells (ELISA of nuclear p50/p65, luciferase reporter gene assay)", "format": "cell-based, murine", "conditions": "KB 200 μM", "protocol": "[…]\nDetection of NF-κB activation using ELISA: Each well was added with 30 μl binding solution (3.2 μl DTT and 16.2 μl Herring sperm DNA were diluted in 1.6 ml binding solutions); each sample well was added with 20 μl sample ([…]); positive control wells was added with 20 μl p50; blank control wells were added with 20 μl dissolution buffer (0.9 μl 1M DTT and 1.8 μl protease inhibitors was diluted in 177.3 μl dissolution buffer AM2); the microtiter plate was shaken for 30 seconds for completely mixing, incubated at room temperature for 1 h, and then washed thrice with 200 μl 1×wash solution (450 μl 10×wash solution were diluted in 4.05 ml ddH2O) and gentle shaking for 5 min each time; each well was added with 100 μl NF-κB antibody (1:1000), incubated for 1 h, then washed thrice with 200 μl 1×wash solution and gentle shaking for 5 min each time; each well was added with 100 μl HRP antibody (1:1000), incubated for 1 h, then washed four times with 200 μl 1×wash solution and gentle shaken for 5 min each time; each well was added with 100 μl detection reagent, incubated for 5 min away from light, and then added with 100 μl stop solution; the absorbance value at 450 nm of each well was detected. […]"}, "[1]": {"experiment": "Major organ pathological morphous of mice after KB injection", "format": "in vivo, Kunming mice", "conditions": "KB 60 mg/kg single dose; 24, 48 and 72 h", "protocol": "30.1 Methods: A total of 16 Kunming mice were randomly divided into four groups; each group has 4 mice, half male and half female; for the purpose of experiment a medium group and a KB (60 mg/kg) treatment group were established; mice in medium group were immediately killed by cervical dislocation, and KB treatment group were killed separately killed at 24, 48 and 72 h after injection; the cavitas thoracis and abdominal cavity of mice were cut open; organs such as heart, liver, lung, kidney and intestine were moved out, rinsed with sterile saline, plunged into 10% formaldehyde solution for fixing, dehydrated, embedded in paraffin, HE dyed and mounted; organ histopathological changes were observed under a light microscope."}}, "data": [{"smiles": "NCCCN(CCCCNCCCNC(=O)CCc1ccc(O)c(O)c1)C(=O)CCc1ccc(O)c(O)c1", "note": "[KB, Kukoamine B]", "values": [{"measurement": "green fluorescence intensity of 5-FAM (CpG DNA) on the surface of and inside RAW264.7 cells", "setting": "RAW264.7 cells; 5-FAM-CpG DNA 10 μg/ml", "value": "significantly weakened"}, {"measurement": "green fluorescence intensity of FITC (LPS) on the surface of and inside RAW264.7 cells", "setting": "RAW264.7 cells; FITC-LPS 200 ng/ml", "value": "significantly weakened"}, {"measurement": "increase of p50 and p65 levels in nuclear proteins induced by LPS and CpG DNA", "setting": "NF-κB; 2 h, ELISA", "value": "significantly inhibited"}, {"measurement": "NF-κB activation induced by LPS and CpG DNA (luciferase reporter gene assay)", "setting": "NF-κB; 6 h", "value": "inhibit NF-κB activation"}, {"measurement": "cardiac muscle histopathology", "setting": "[1]", "value": "no cell necrosis and inflammatory cell infiltration"}, {"measurement": "changes in major organs of mice", "setting": "[1]", "value": "no significant changes in major organs"}, {"measurement": "kidney histopathology", "setting": "[1]", "value": "normal morphology and no obvious changes"}, {"measurement": "liver histopathology", "setting": "[1]", "value": "no pathological changes such as cellular swelling and necrosis"}, {"measurement": "lung histopathology", "setting": "[1]", "value": "no congestion and inflammatory cell infiltration"}]}]}
